Data published in patent US10653685B2, “Pharmaceutical compositions and methods for the treatment of hypoxia-related diseases” (priority 2015, dated 2020).

How the values were obtained:
rat primary heart cells [1] = experiment: CK released by rat primary heart cells under hypoxia; assay type: cell-based; conditions: hypoxia 3 hours
Description: (§1) Sprague Dawley rat hearts (1-2 days old) were sterilely removed and bathed three times in Ca^++ and Mg^++—free PBS to remove excess blood cells. The hearts were minced to small fragments and then agitated in a proteolytic enzyme-RDB solution (Life Science research, Inst., Nes Ziona, Israel) prepared from a fig tree extract as described previously (Brik et al., Basic Res. Cardiol. 85:237-246, 1990), Shneyvays et al., J Mol Cell Cardiol. 33:1249-1261, 2001). The RDB-solution was then diluted 1:200 in PBS at 25° C. for a few cycles of 10 min each. The supernatant suspension containing dissociated cells, to which medium containing 10% horse serum was added, was centrifuged at 500 g for 5 min. After centrifugation, the supernatant phase was discarded, and cells were re-suspended in Dulbecco's modified Eagle medium supplemented with 10% heat-inactivated horse serum and 0.5% chick embryo extract. Cell suspensions were diluted to 1×10^6 cells/ml, and […] samples were placed in 24 well plates (4 plates) collagen/gelatin coated plastic culture dishes. […] The day after, Cells were washed to remove dead cells, and growth medium was replaced, as well as every 2 days and before experiment initiation, this time with glucose-free PBS. The experiments were then performed in vitro on these cardiomyocyte cultures after 5 days following the day of procedure beginning. Right before Hypoxia experiments, cultures wells were incubated in a humidified atmosphere incubator of 5% CO2 and 95% air at 37° C. for 30 minute steady state.
(§2) Approximately 3×10^5 cardiomyocytes/well from neonatal rat hearts were cultured with glucose-free PBS and exposed to hypoxia (oxygen and glucose deprivation) for 180 min. using a procedure essentially as described by O. Golan et al. (Biochemical pharmacology, 81 (2011), pp. 1219-1227)
(§3) In brief, Hypoxia was performed in a closed chamber by replacement of air with 100% Argon. During hypoxia Oxygen levels in the N2 atmosphere was below 1%. And after 180 min. of hypoxia, the pO2 in the PBS was <0.4 Torr. Hypoxic stress injury was determined based on the activity of lactate dehydrogenase (LDH) and creatine kinase (CK) released from the cells, at the end of 3 hr. hypoxic phase, and consequently after additional 2 hr. of reoxygenation.
For both LDH and CK measurements, 25 μL aliquots of each well incubated for 180 min under hypoxia, were transfer to clean 24 wells trays, which were placed within the automatic spectrophotometer and the product of the enzyme activity was measured through a wavelength of 340 nm at 30° C., under shaking. […]
Creatine Kinase (CK) activity was determined within the cardiac cell medium (PBS) using CK-NAC Reagent (Creatine kinase, activated by N-acetyl cysteine) from Thermo Fisher Scientific Inc. Middletown, Va. […]

rat primary heart cells [2] = experiment: LDH released by rat primary heart cells under hypoxia; assay type: cell-based; conditions: hypoxia 3 hours
Description: as §1, §2, §3
For both LDH and CK measurements, 25 μL aliquots of each well incubated for 180 min under hypoxia, were transfer to clean 24 wells trays, which were placed within the automatic spectrophotometer and the product of the enzyme activity was measured through a wavelength of 340 nm at 30° C., under shaking. Results were expressed relatively to the control.
Lactate dehydrogenase (LDH) activity was determined within the cardiac cell medium (PBS) using LDH-L kit (Thermo Trace, Melbourne, Australia). […]

heart cells = conditions: maximum protection, WO 2013/003445; cited from earlier work

c1ccc(CN(CCN(Cc2ccccn2)Cc2ccccn2)Cc2ccccn2)nc1 [TPEN, N,N,N′,N′-tetrakis-(2-pyridylmethyl)-ethylenediamine]
CK Reduction (rat primary heart cells [1]; sodium alginate 0, TPEN 0.3 μM): 46.6%
Mean (CK released from rat heart cells) (rat primary heart cells [1]; sodium alginate 0, TPEN 0.3 μM): 0.0411
CK Reduction (rat primary heart cells [1]; sodium alginate 0, TPEN 1 μM): 14.3%
Mean (CK released from rat heart cells) (rat primary heart cells [1]; sodium alginate 0, TPEN 1 μM): 0.0643
LDH Reduction (rat primary heart cells [2]; sodium alginate 0, TPEN 0.3 μM): 39.5%
Mean (LDH released from rat heart cells) (rat primary heart cells [2]; sodium alginate 0, TPEN 0.3 μM): 0.0409
LDH Reduction (rat primary heart cells [2]; sodium alginate 0, TPEN 1 μM): 10.0%
Mean (LDH released from rat heart cells) (rat primary heart cells [2]; sodium alginate 0, TPEN 1 μM): 0.0647
protection from hypoxia stress injury (heart cells): ≤ 70%
